From patent US20090311237A1, “Combination therapy using a soluble hyaluronidase and a bisphosphonate” (priority 2008, published 2009)
Where two headings read alike, the source gives them in different places.

Test: Pharmacokinetics of ZA in pig serum after IV or SC infusion with or without rHuPH20 (LC-MS-MS, non-compartmental analysis)
Type: in vivo
Conditions: female, Yorkshire, pig, serum, […]
Method: A pharmacokinetic study of zoledronic acid (ZA) co-administered with rHuPH20 in female Yorkshire swines was conducted. The primary objective of the study was to determine the bioavailability of zoledronic acid dosed via subcutaneous (SC) co-administration with human recombinant hyaluronidase PH20 (rHuPH20) and to compare the overall exposure to an equivalent IV dose.
Animals in Study Group 1 were dosed with 0.15 mg/kg ZA given via a 20-minute IV infusion. Animals in Study Groups 2 and 3 were dosed subcutaneously (SC) with 0.15 mg/kg ZA without and with rHuPH20, respectively, in different SC delivery volumes.
Following ZA dose administration, serial blood samples were collected via vascular access ports (VAPs) for serum preparation and determination of ZA concentrations. Blood collection times were at 1, 3, 5, 10, 15, 20, 30, 45, and 60 minutes, and at 1.5, 2, 3, 4, 6, 8, 10, 24, 48, and 72 hours post dose. Urine samples were also collected to compare excretion characteristics between IV and SC routes of administration. Collection times for urine were at 15 minutes before dosing (−15 min.), continuously from dose initiation to 2 hours post dose, and at 4, 6, 8, and 24 hours post dose thereafter.
Serum concentration of ZA was determined using a qualified LC-MS-MS assay after derivatization with diazomethane (Zhu, L S et al. (2006) Rapid Commun. Mass Spectrom. 20: 3421-3426; “Qualification Data of An LC-MS/MS Method for the Determination of Zoledronate in Porcine Serum”, MDS Pharma Services Study No. AA43671-01, Report Date 14 Sep. 2007). The assay range was from 2.0 to 400 ng/mL with a lower limit of quantitation (LLOQ) at 2.0 ng/mL. Urine concentration of ZA was determined by a similar well qualified LC-MS-MS method (“Qualification Data of An LC-MS/MS Method for the Determination of Zoledronate in Porcine Urine”, MDS Pharma Services Study No. AA43671-02, Report Date 14 Sep. 2007) with an assay LLOQ at 10 ng/mL.
Pharmacokinetic (PK) analyses of ZA serum concentration versus time data were conducted using WinNonlin v5.1 (Pharsight, Mountain View, Calif.). Non-compartmental analysis was used for derivation of primary and secondary pharmacokinetic (PK) parameters. AUC, Cmax, and Tmax were compared between dose routes, between co-administration with rHuPH20, and with dose of rHuPH20.

[1] = intravenous, animal ID 61, Study Group 1, IV 20 min infusion, ZA […], rHuPH20 0 U/mL, read-out: Zoledronic Acid Serum Concentration
[2] = intravenous, animal ID 67, Study Group 1, IV 20 min infusion, ZA […], rHuPH20 0 U/mL, read-out: Zoledronic Acid Serum Concentration

## O=P(O)(O)C(O)(Cn1ccnc1)P(=O)(O)O [ZA, 1-hydroxy-2-(1H-imidazol-1-yl)ethylidene-1,1-bisphosphonic acid]
[1]
  concentration at 2 h: 18.8 ng/mL
  concentration at 3 h: 6.1 ng/mL
  concentration at 4 h: 3.3 ng/mL
intravenous, animal ID 67, Study Group 1, IV 20 min infusion, ZA […], rHuPH20 0 U/mL, time 0.05 h, read-out: Zoledronic Acid Serum Concentration
  concentration at 0.05 h: 288 ng/mL
intravenous, animal ID 67, Study Group 1, IV 20 min infusion, ZA […], rHuPH20 0 U/mL, time 0.333 h, read-out: Zoledronic Acid Serum Concentration
  concentration at 0.333 h: 556 ng/mL
intravenous, animal ID 67, Study Group 1, IV 20 min infusion, ZA […], rHuPH20 0 U/mL, time 0.5 h, read-out: Zoledronic Acid Serum Concentration
  concentration at 0.5 h: 246 ng/mL
intravenous, animal ID 67, Study Group 1, IV 20 min infusion, ZA […], rHuPH20 0 U/mL, time 1 h, read-out: Zoledronic Acid Serum Concentration
  concentration at 1 h: 77.8 ng/mL
[2]
  concentration at 2 h: 16.6 ng/mL
  concentration at 3 h: 6.67 ng/mL
  concentration at 4 h: 3.35 ng/mL
iv, absolute clearance by non-compartmental analysis of the IV dose (from Table 13), used for Study Groups 2 and 3, read-out: Serum CL (converted)
  clearance: 7.34 mL/min/kg
iv, ZA […] 20-min IV infusion, individual pigs 57, 61, 67, read-out: CL (converted)
  clearance: 6.76 mL/min/kg
iv, ZA […] 20-min IV infusion, individual pigs 57, 61, 67, read-out: Tmax
  Tmax: 15 min
iv, ZA […] 20-min IV infusion, individual pigs 57, 61, 67, read-out: T½ λz (converted)
  half-life: 37.8 min
iv, ZA […] 20-min IV infusion, individual pigs 57, 61, 67, read-out: Vss
  Vd: 0.104 L/kg
iv, ZA […] 20-min IV infusion, individual pigs 57, 61, 67, read-out: Vz
  Vd: 0.371 L/kg
iv, ZA […] 20-min IV infusion, n=3, read-out: CL, mean (converted)
  clearance: 7.34 mL/min/kg
iv, ZA […] 20-min IV infusion, n=3, read-out: CL, median (converted)
  clearance: 7.36 mL/min/kg
iv, ZA […] 20-min IV infusion, n=3, read-out: Tmax, mean
  Tmax: 15 min
iv, ZA […] 20-min IV infusion, n=3, read-out: Tmax, median
  Tmax: 15 min
iv, ZA […] 20-min IV infusion, n=3, read-out: T½ λz, mean (converted)
  half-life: 43.2 ± 4.8 min
iv, ZA […] 20-min IV infusion, n=3, read-out: T½ λz, median (converted)
  half-life: 44.4 min
iv, ZA […] 20-min IV infusion, n=3, read-out: Vss, mean
  Vd: 0.123 L/kg
iv, ZA […] 20-min IV infusion, n=3, read-out: Vss, median
  Vd: 0.131 L/kg
iv, ZA […] 20-min IV infusion, n=3, read-out: Vz, mean
  Vd: 0.458 ± 0.0759 L/kg
iv, ZA […] 20-min IV infusion, n=3, read-out: Vz, median
  Vd: 0.498 L/kg
sc, pig 59, SC ZA […], 100 mL over 16 min, no rHuPH20, read-out: CL/F (converted)
  CL/F: 7.97 mL/min/kg
sc, pig 59, SC ZA […], 100 mL over 16 min, no rHuPH20, read-out: Tmax
  Tmax: 20 min
sc, pig 59, SC ZA […], 100 mL over 16 min, no rHuPH20, read-out: T½ λz (converted)
  half-life: 66 min
sc, pig 59, SC ZA […], 100 mL over 16 min, no rHuPH20, read-out: Vss/F
  Vd/F: 0.617 L/kg
sc, pig 59, SC ZA […], 100 mL over 16 min, no rHuPH20, read-out: Vz/F
  Vd/F: 0.76 L/kg
sc, pig 60, SC ZA […], 100 mL over 16 min, no rHuPH20, read-out: CL/F (converted)
  CL/F: 6.97 mL/min/kg
sc, pig 60, SC ZA […], 100 mL over 16 min, no rHuPH20, read-out: SC Bioavailability (0-1 h)
  bioavailability: 55.5%
sc, pig 60, SC ZA […], 100 mL over 16 min, no rHuPH20, read-out: SC Bioavailability (0-8 h)
  bioavailability: 105%
sc, pig 60, SC ZA […], 100 mL over 16 min, no rHuPH20, read-out: Tmax
  Tmax: 20 min
sc, pig 60, SC ZA […], 100 mL over 16 min, no rHuPH20, read-out: T½ λz (converted)
  half-life: 52.2 min
sc, pig 60, SC ZA […], 100 mL over 16 min, no rHuPH20, read-out: Vss/F
  Vd/F: 0.526 L/kg
sc, pig 60, SC ZA […], 100 mL over 16 min, no rHuPH20, read-out: Vz/F
  Vd/F: 0.524 L/kg
sc, pig 62, SC ZA […], 50 mL over 8 min, no rHuPH20, read-out: CL/F (converted)
  CL/F: 10.2 mL/min/kg
sc, pig 62, SC ZA […], 50 mL over 8 min, no rHuPH20, read-out: SC Bioavailability (0-1 h)
  bioavailability: 54%
sc, pig 62, SC ZA […], 50 mL over 8 min, no rHuPH20, read-out: SC Bioavailability (0-8 h)
  bioavailability: 71.9%
sc, pig 62, SC ZA […], 50 mL over 8 min, no rHuPH20, read-out: Tmax
  Tmax: 10 min
sc, pig 62, SC ZA […], 50 mL over 8 min, no rHuPH20, read-out: T½ λz (converted)
  half-life: 58.2 min
sc, pig 62, SC ZA […], 50 mL over 8 min, no rHuPH20, read-out: Vss/F
  Vd/F: 0.634 L/kg
sc, pig 62, SC ZA […], 50 mL over 8 min, no rHuPH20, read-out: Vz/F
  Vd/F: 0.852 L/kg
sc, pig 69, SC ZA […], 25 mL over 4 min, no rHuPH20, read-out: CL/F (converted)
  CL/F: 9.28 mL/min/kg
sc, pig 69, SC ZA […], 25 mL over 4 min, no rHuPH20, read-out: SC Bioavailability (0-1 h)
  bioavailability: 56.9%
sc, pig 69, SC ZA […], 25 mL over 4 min, no rHuPH20, read-out: SC Bioavailability (0-8 h)
  bioavailability: 78.8%
sc, pig 69, SC ZA […], 25 mL over 4 min, no rHuPH20, read-out: Tmax
  Tmax: 10 min
sc, pig 69, SC ZA […], 25 mL over 4 min, no rHuPH20, read-out: T½ λz (converted)
  half-life: 60.6 min
sc, pig 69, SC ZA […], 25 mL over 4 min, no rHuPH20, read-out: Vss/F
  Vd/F: 0.652 L/kg
sc, pig 69, SC ZA […], 25 mL over 4 min, no rHuPH20, read-out: Vz/F
  Vd/F: 0.811 L/kg
sc, pig 70, SC ZA […], 10 mL over 1.6 min, no rHuPH20, read-out: CL/F (converted)
  CL/F: 7.69 mL/min/kg
sc, pig 70, SC ZA […], 10 mL over 1.6 min, no rHuPH20, read-out: SC Bioavailability (0-1 h)
  bioavailability: 66.5%
sc, pig 70, SC ZA […], 10 mL over 1.6 min, no rHuPH20, read-out: SC Bioavailability (0-8 h)
  bioavailability: 95.1%
sc, pig 70, SC ZA […], 10 mL over 1.6 min, no rHuPH20, read-out: Tmax
  Tmax: 10 min
sc, pig 70, SC ZA […], 10 mL over 1.6 min, no rHuPH20, read-out: T½ λz (converted)
  half-life: 85.2 min
sc, pig 70, SC ZA […], 10 mL over 1.6 min, no rHuPH20, read-out: Vss/F
  Vd/F: 0.615 L/kg
sc, pig 70, SC ZA […], 10 mL over 1.6 min, no rHuPH20, read-out: Vz/F
  Vd/F: 0.947 L/kg
sc, SC ZA […], no rHuPH20 (Study Group 2), n=4, read-out: CL/F, mean (converted)
  CL/F: 8.52 mL/min/kg
sc, SC ZA […], no rHuPH20 (Study Group 2), n=4, read-out: CL/F, median (converted)
  CL/F: 8.48 mL/min/kg
sc, SC ZA […], no rHuPH20 (Study Group 2), n=4, read-out: SC Bioavailability (0-1 h), mean
  bioavailability: 58.2%
sc, SC ZA […], no rHuPH20 (Study Group 2), n=4, read-out: SC Bioavailability (0-1 h), median
  bioavailability: 56.2%
